{"source": "paper PMC8286840", "about": "“Identifying SARS-CoV-2 antiviral compounds by screening for small molecule inhibitors of Nsp3 papain-like protease” (Biochemical Journal, 2021)", "key": {"[1]": {"target": "T1, SARS-CoV-2 PLpro (nsp3 1564–1878) (Severe acute respiratory syndrome coronavirus 2, UniProt P0DTD1)", "assay": "biochemical", "parameters": "FRET-quenched peptide (Pro3) cleavage by PLpro, 10 min pre-incubation, slope over 20 min, normalised to no-compound control", "details": "low concentration screen, read-out: % of control remaining"}, "[2]": {"target": "T1, SARS-CoV-2 PLpro (nsp3 1564–1878)", "assay": "biochemical", "parameters": "FRET-quenched peptide (Pro3) cleavage by PLpro, 10 min pre-incubation, slope over 20 min, normalised to no-compound control", "details": "high concentration screen, read-out: % of control remaining"}}, "note": "Structures can show the parent of a compound that is named as a salt. Where two headings read alike, the source gives them in different places."}
{"smiles": "CC1(C)O[C@@H]2C[C@H]3[C@@H]4C[C@H](F)C5=CC(=O)C=C[C@]5(C)[C@@]4(F)[C@@H](O)C[C@]3(C)[C@]2(C(=O)CO)O1", "note": "[Fluocinolone acetonide]", "values": [{"measurement": "remaining activity at 1.25 µM", "setting": "[1]; Well no.=2126", "result": 97.3, "unit": "%"}, {"measurement": "remaining activity at 3.75 µM", "setting": "[2]; Well no.=2126", "result": 98.4, "unit": "%"}]}
{"smiles": "CC(=O)OCC(=O)[C@@]12OC(C)(C)O[C@@H]1C[C@H]1[C@@H]3C[C@H](F)C4=CC(=O)C=C[C@]4(C)[C@@]3(F)[C@@H](O)C[C@@]12C", "note": "[Fluocinonide]", "values": [{"measurement": "remaining activity at 1.25 µM", "setting": "[1]; Well no.=6805", "result": 98.5, "unit": "%"}, {"measurement": "remaining activity at 3.75 µM", "setting": "[2]; Well no.=6805", "result": 99.9, "unit": "%"}]}
{"smiles": "CNCCC(Oc1ccc(C(F)(F)F)cc1)c1ccccc1", "note": "(stereo not drawn) [Fluoxetine hydrochloride]", "values": [{"measurement": "remaining activity at 1.25 µM", "setting": "[1]; Well no.=761", "result": 95.3, "unit": "%"}, {"measurement": "remaining activity at 3.75 µM", "setting": "[2]; Well no.=761", "result": 93.4, "unit": "%"}]}
{"smiles": "CNCCC(Oc1ccc(C(F)(F)F)cc1)c1ccccc1", "note": "(stereo not drawn) [Fluoxetine]", "values": [{"measurement": "remaining activity at 1.25 µM", "setting": "[1]; Well no.=2102", "result": 96.6, "unit": "%"}, {"measurement": "remaining activity at 3.75 µM", "setting": "[2]; Well no.=2102", "result": 98.8, "unit": "%"}]}
{"smiles": "CN1CCN(C2=Nc3cc(F)ccc3Cc3ccccc32)CC1", "note": "[Fluperlapine]", "values": [{"measurement": "remaining activity at 1.25 µM", "setting": "[1]; Well no.=2100", "result": 101, "unit": "%"}, {"measurement": "remaining activity at 3.75 µM", "setting": "[2]; Well no.=2100", "result": 98.8, "unit": "%"}]}
{"smiles": "CCOC(=O)Nc1ccc(NCc2ccc(F)cc2)nc1N", "note": "[Flupirtine maleate]", "values": [{"measurement": "remaining activity at 1.25 µM", "setting": "[1]; Well no.=711", "result": 95.7, "unit": "%"}, {"measurement": "remaining activity at 3.75 µM", "setting": "[2]; Well no.=711", "result": 90.6, "unit": "%"}]}
{"smiles": "CC(C(=O)O)c1ccc(-c2ccccc2)c(F)c1", "note": "(stereo not drawn) [Flurbiprofen]", "values": [{"measurement": "remaining activity at 1.25 µM", "setting": "[1]; Well no.=2118", "result": 99.6, "unit": "%"}, {"measurement": "remaining activity at 3.75 µM", "setting": "[2]; Well no.=2118", "result": 101, "unit": "%"}]}
{"smiles": "O=C1NCN(c2ccccc2)C12CCN(CCCC(c1ccc(F)cc1)c1ccc(F)cc1)CC2", "note": "[Fluspirilene]", "values": [{"measurement": "remaining activity at 1.25 µM", "setting": "[1]; Well no.=569", "result": 98.4, "unit": "%"}, {"measurement": "remaining activity at 3.75 µM", "setting": "[2]; Well no.=569", "result": 97.3, "unit": "%"}, {"measurement": "remaining activity at 3.75 µM", "setting": "[2]; Well no.=1599", "result": 98.9, "unit": "%"}]}
{"smiles": "CC(C)C(=O)Nc1ccc([N+](=O)[O-])c(C(F)(F)F)c1", "note": "[Flutamide]", "values": [{"measurement": "remaining activity at 1.25 µM", "setting": "[1]; Well no.=759", "result": 90.8, "unit": "%"}, {"measurement": "remaining activity at 1.25 µM", "setting": "[1]; Well no.=2130", "result": 93, "unit": "%"}, {"measurement": "remaining activity at 3.75 µM", "setting": "[2]; Well no.=759", "result": 97.8, "unit": "%"}, {"measurement": "remaining activity at 3.75 µM", "setting": "[2]; Well no.=2130", "result": 95, "unit": "%"}]}
{"smiles": "CCC(=O)O[C@]1(C(=O)SCF)[C@H](C)C[C@H]2[C@@H]3C[C@H](F)C4=CC(=O)C=C[C@]4(C)[C@@]3(F)[C@@H](O)C[C@@]21C", "note": "[Fluticasone (propionate)]", "values": [{"measurement": "remaining activity at 1.25 µM", "setting": "[1]; Well no.=7515", "result": 98.2, "unit": "%"}, {"measurement": "remaining activity at 3.75 µM", "setting": "[2]; Well no.=7515", "result": 97.6, "unit": "%"}]}
{"smiles": "CC(C)n1c(/C=C/[C@@H](O)C[C@@H](O)CC(=O)O)c(-c2ccc(F)cc2)c2ccccc21", "note": "[Fluvastatin sodium (Lescol)]", "values": [{"measurement": "remaining activity at 1.25 µM", "setting": "[1]; Well no.=4998", "result": 106, "unit": "%"}, {"measurement": "remaining activity at 3.75 µM", "setting": "[2]; Well no.=4998", "result": 102, "unit": "%"}]}
{"smiles": "CC(C)n1c(/C=C/[C@H](O)C[C@H](O)CC(=O)O)c(-c2ccc(F)cc2)c2ccccc21", "note": "[Fluvastatin]", "values": [{"measurement": "remaining activity at 1.25 µM", "setting": "[1]; Well no.=1902", "result": 97.7, "unit": "%"}, {"measurement": "remaining activity at 3.75 µM", "setting": "[2]; Well no.=1902", "result": 98.9, "unit": "%"}]}
{"smiles": "COCCCC/C(=N\\OCCN)c1ccc(C(F)(F)F)cc1", "note": "[Fluvoxamine maleate]", "values": [{"measurement": "remaining activity at 1.25 µM", "setting": "[1]; Well no.=467", "result": 95.7, "unit": "%"}, {"measurement": "remaining activity at 3.75 µM", "setting": "[2]; Well no.=467", "result": 96.4, "unit": "%"}]}
{"smiles": "C[C@@H](C(=O)O)N(C)C(=O)OCC1c2ccccc2-c2ccccc21", "note": "[Fmoc-N-Me-Ala-OH]", "values": [{"measurement": "remaining activity at 1.25 µM", "setting": "[1]; Well no.=7976", "result": 91.3, "unit": "%"}, {"measurement": "remaining activity at 3.75 µM", "setting": "[2]; Well no.=7976", "result": 92.8, "unit": "%"}]}
{"smiles": "CC(C)C[C@@H](C(=O)O)N(C)C(=O)OCC1c2ccccc2-c2ccccc21", "note": "[Fmoc-N-Me-Leu-OH]", "values": [{"measurement": "remaining activity at 1.25 µM", "setting": "[1]; Well no.=7972", "result": 92.7, "unit": "%"}, {"measurement": "remaining activity at 3.75 µM", "setting": "[2]; Well no.=7972", "result": 94.1, "unit": "%"}]}
{"smiles": "CN(C(=O)OCC1c2ccccc2-c2ccccc21)[C@@H](Cc1ccccc1)C(=O)O", "note": "[Fmoc-N-Me-Phe-OH]", "values": [{"measurement": "remaining activity at 1.25 µM", "setting": "[1]; Well no.=7888", "result": 101, "unit": "%"}, {"measurement": "remaining activity at 3.75 µM", "setting": "[2]; Well no.=7888", "result": 102, "unit": "%"}]}
{"smiles": "Nc1nc(=O)c2nc(CNc3ccc(C(=O)N[C@@H](CCC(=O)O)C(=O)O)cc3)cnc2[nH]1", "note": "[Folic acid]", "values": [{"measurement": "remaining activity at 1.25 µM", "setting": "[1]; Well no.=7300", "result": 97.8, "unit": "%"}, {"measurement": "remaining activity at 3.75 µM", "setting": "[2]; Well no.=7300", "result": 96.1, "unit": "%"}]}
{"smiles": "COc1cc(=O)n(C)c2c(OCC(O)C(C)(C)O)cccc12", "note": "(stereo not drawn) [Foliosidine]", "values": [{"measurement": "remaining activity at 1.25 µM", "setting": "[1]; Well no.=565", "result": 104, "unit": "%"}, {"measurement": "remaining activity at 3.75 µM", "setting": "[2]; Well no.=565", "result": 97.8, "unit": "%"}]}
{"smiles": "C[C@]12CCC(=O)C(O)=C1CC[C@@H]1[C@@H]2CC[C@]2(C)C(=O)CC[C@@H]12", "note": "[Formestane]", "values": [{"measurement": "remaining activity at 1.25 µM", "setting": "[1]; Well no.=2134", "result": 99.1, "unit": "%"}, {"measurement": "remaining activity at 3.75 µM", "setting": "[2]; Well no.=2134", "result": 101, "unit": "%"}]}
{"smiles": "COc1ccc(-c2coc3cc(O)ccc3c2=O)cc1", "note": "[Formononetin]", "values": [{"measurement": "remaining activity at 1.25 µM", "setting": "[1]; Well no.=3611", "result": 96.9, "unit": "%"}, {"measurement": "remaining activity at 3.75 µM", "setting": "[2]; Well no.=3611", "result": 96.2, "unit": "%"}]}
{"smiles": "COc1ccc(C[C@H](C)NC[C@@H](O)c2ccc(O)c(NC=O)c2)cc1", "note": "[Formoterol (Fumarate)]", "values": [{"measurement": "remaining activity at 1.25 µM", "setting": "[1]; Well no.=6413", "result": 101, "unit": "%"}, {"measurement": "remaining activity at 3.75 µM", "setting": "[2]; Well no.=6413", "result": 95.1, "unit": "%"}]}
